Like-named read-outs stand apart in the source and are kept apart here.
Legend:
human DGKα = biological target: T1, human DGKα (Homo sapiens, UniProt P23743); assay: DGKα LIPGLO assay (extruded liposome substrate), in vitro DGK inhibition; assay type: biochemical; details: liposome (LIPGLO) assay; read-out: DGKa LIPGLO IC50
T1 construct: TVMV protease cleavage site (C); Hexa-His (C); made in house; host or cells: Sf9 insect cells (baculovirus, Bac-to-Bac)

[1] = tested on: OT-1 CD8+ T cells with SIINFEKL-loaded MC38 tumor cells; assay: Murine cytotoxic T lymphocyte assay (IFN-γ, OT-1 CTL with MC38 tumor cells); assay type: cell-based, mouse; details: read-out: msCTL INFg IC50
How it was run: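 IFN-γ was quantified by AlphaLISA in supernatants after 24 h co-culture at 37° C. Effectors were OT-1 CD8+ CTLs (5-day peptide/mIL2 expansion), exposed 1 h to DGK inhibitors before mixing 1:10 with MC38 tumor cells loaded 3 h with 1 μg/mL SIINFEKL peptide.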

naïve human CD8 T cells = assay: Human CD8 T cells IFN-γ assay; assay type: cell-based; details: normalized to 3 μM reference compound with anti-CD3 plus anti-CD28 as 100% activation, read-out: HuCD8 INFG Normalized EC50;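 further: Naïve human CD8 T cells stimulated with plate-bound anti-CD3 and soluble anti-CD28, IFN-γ in supernatant quantified by AlphaLISA and converted to pg/mL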
human DGKζ = biological target: T2, human DGKζ (Homo sapiens, UniProt Q13574); assay: DGKζ LIPGLO assay (extruded liposome substrate), in vitro DGK inhibition; assay type: biochemical; details: liposome (LIPGLO) assay; read-out: DGKz LIPGLO IC50
T2 construct: TVMV protease cleavage site (C); Hexa-His (C); made in house; host or cells: Sf9 insect cells (baculovirus, Bac-to-Bac)
T2 sequence (Q13574 with tags, fused parts or gaps isoform Q13574-4): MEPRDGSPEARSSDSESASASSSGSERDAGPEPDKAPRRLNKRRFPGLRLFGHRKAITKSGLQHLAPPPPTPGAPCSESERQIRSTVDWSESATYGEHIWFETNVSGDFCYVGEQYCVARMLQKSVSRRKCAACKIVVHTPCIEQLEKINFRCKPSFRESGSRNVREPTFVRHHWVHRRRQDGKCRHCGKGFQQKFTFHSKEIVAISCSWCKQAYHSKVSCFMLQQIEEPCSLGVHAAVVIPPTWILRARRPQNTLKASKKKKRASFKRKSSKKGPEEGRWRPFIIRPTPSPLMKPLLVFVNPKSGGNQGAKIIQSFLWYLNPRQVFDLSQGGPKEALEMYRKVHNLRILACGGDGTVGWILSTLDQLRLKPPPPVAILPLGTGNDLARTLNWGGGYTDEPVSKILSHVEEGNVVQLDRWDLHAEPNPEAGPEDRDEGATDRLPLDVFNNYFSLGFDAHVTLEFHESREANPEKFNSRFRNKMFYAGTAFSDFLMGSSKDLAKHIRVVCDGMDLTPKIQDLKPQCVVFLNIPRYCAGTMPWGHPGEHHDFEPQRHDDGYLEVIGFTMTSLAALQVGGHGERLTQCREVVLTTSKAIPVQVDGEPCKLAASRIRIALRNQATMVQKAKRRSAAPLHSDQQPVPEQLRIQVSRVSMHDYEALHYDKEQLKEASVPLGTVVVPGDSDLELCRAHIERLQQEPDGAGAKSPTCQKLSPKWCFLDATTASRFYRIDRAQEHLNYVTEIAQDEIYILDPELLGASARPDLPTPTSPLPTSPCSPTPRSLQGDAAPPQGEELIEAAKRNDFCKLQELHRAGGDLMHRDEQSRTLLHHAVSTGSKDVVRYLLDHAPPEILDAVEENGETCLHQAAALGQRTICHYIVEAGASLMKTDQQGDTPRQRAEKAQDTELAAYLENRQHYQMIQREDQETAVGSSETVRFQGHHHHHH

Human venous whole blood = assay: Human whole blood IFN-γ assay; assay type: cell-based; details: human whole blood, normalized to 3 μM reference compound with anti-CD3 plus anti-CD28 as 100% activation, read-out: INFg Whole Blood Normalized Agonist EC50;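 further: blood from healthy donors exposed to compound for 1 h before stimulation with anti-CD3 and anti-CD28 at 1 µg/mL each, IFN-γ quantified in supernatant by AlphaLISA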

T1 sequence (P23743 with tags, fused parts or gaps): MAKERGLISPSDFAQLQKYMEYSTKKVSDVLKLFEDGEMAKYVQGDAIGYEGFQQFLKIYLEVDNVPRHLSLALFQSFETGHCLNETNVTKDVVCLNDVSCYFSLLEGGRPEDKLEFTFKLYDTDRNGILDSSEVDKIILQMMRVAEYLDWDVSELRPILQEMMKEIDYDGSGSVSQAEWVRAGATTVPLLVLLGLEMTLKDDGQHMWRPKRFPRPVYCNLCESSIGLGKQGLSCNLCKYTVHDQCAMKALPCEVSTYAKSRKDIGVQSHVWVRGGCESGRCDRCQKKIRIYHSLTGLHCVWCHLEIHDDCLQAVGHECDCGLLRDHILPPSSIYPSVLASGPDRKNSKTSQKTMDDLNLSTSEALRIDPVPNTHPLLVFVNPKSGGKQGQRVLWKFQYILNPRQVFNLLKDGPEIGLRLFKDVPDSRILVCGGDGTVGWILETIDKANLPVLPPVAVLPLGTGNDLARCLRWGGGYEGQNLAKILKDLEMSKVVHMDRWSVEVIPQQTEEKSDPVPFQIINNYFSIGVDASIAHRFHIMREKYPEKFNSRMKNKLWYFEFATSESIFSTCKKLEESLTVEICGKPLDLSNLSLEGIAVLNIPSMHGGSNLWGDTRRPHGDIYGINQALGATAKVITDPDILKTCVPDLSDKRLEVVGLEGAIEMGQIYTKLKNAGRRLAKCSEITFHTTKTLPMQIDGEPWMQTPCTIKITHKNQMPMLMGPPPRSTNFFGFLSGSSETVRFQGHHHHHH

Row | IC50 (human DGKα) [nM] | IC50 (human DGKζ) [nM] | SMILES | IC50 ([1]; Mus musculus, MC-38) [nM] | EC50 (naïve human CD8 T cells; Homo sapiens, T-cell, 20 h) [nM] | EC50 (Human venous whole blood; Homo sapiens, 24 h) [nM] | IC50 [1] [nM] | EC50 (naïve human CD8 T cells) [nM] | EC50 (Human venous whole blood) [nM] | EC50 (Human venous whole blood; Homo sapiens) [nM]
1 | 47000 | 2000 | CC[C@H]1CN(c2cc(=O)n(C)c3ccc(C#N)nc23)CCN1C(c1ccc(F)cc1)c1ccc(F)cc1 [Example 128, (S)-8-(4-(bis(4-fluorophenyl)methyl)-3-ethylpiperazin-1-yl)-5-methyl-6-oxo-5,6-dihydro-1,5-naphthyridine-2-carbonitrile] | 940 | 1400 | 20000 |  |  |  | 
2 | 51000 | 2700 | C[C@@H]1CN(C(c2ccc(F)cc2)c2ccc(F)cc2)[C@H](C)CN1c1c(Cl)c(=O)n(C)c2ccc(C#N)nc12 [Example 132, 8-((2R,5R)-4-(bis(4-fluorophenyl)methyl)-2,5-dimethylpiperazin-1-yl)-7-chloro-5-methyl-6-oxo-5,6-dihydro-1,5-naphthyridine-2-carbonitrile] | 7100 | 2100 | 8300 |  |  |  | 
3 | 29000 | 1700 | COc1cc(F)ccc1C(c1ccc(F)cc1)N1C[C@H](C)N(c2cc(=O)n(C)c3ccc(C#N)nc23)C[C@H]1C (single isomer, unassigned) [Example 119] |  |  |  | 6300 | 610 | 5100 | 
4 | 25 | 160 | CC(c1ccc(F)cc1)N1C[C@H](C)N(c2cc(=O)n(C)c3ccc(C#N)nc23)C[C@H]1C (single isomer, unassigned) [Example 308] | 81 |  | 520 |  | 290 |  | 
5 | 370 | 210 | Cc1ccc(C(c2ccc(Cl)cc2)N2C[C@H](C)N(c3cc(=O)n(C)c4ccc(C#N)nc34)C[C@H]2C)cc1 (single isomer, unassigned) [Example 247] | 110 | 120 | 390 |  |  |  | 
6 | 110000 | 240000 | COc1cc(F)ccc1C(c1ccc(F)cc1)N1C[C@@H](C)N(c2c([N+](=O)[O-])c(=O)n(C)c3ccc(C#N)nc23)C[C@@H]1C (stereo in doubt) [Example 120, 8-((2R,5S)-4-((4-fluoro-2-methoxyphenyl)(4-fluorophenyl)methyl)-2,5-dimethylpiperazin-1-yl)-5-methyl-7-nitro-6-oxo-5,6-dihydro-1,5-naphthyridine-2-carbonitrile] | 4700 | 1000 | 20000 |  |  |  | 
7 | 9500 | 3600 | COC(=O)C1CN(C(c2ccc(F)cc2)c2ccc(F)cc2)CCN1c1c(C#N)c(=O)n(C)c2ccc(C#N)nc12 (single isomer, unassigned) [Example 116, Methyl 4-(bis(4-fluorophenyl)methyl)-1-(3,6-dicyano-1-methyl-2-oxo-1,2-dihydro-1,5-naphthyridin-4-yl)piperazine-2-carboxylate] |  | 160 | 3300 | 560 |  |  | 
8 | 24000 | 100 | COc1cc(F)ccc1C(c1ccc(F)cc1)N1C[C@H](C)N(c2cc(=O)n(C)c3ccc(C#N)nc23)C[C@H]1C (single isomer, unassigned) [Example 109] |  |  |  | 480 | 15 | 1300 | 
9 | 7000 | 2800 | Cc1c(N2CCN(C(c3ccc(F)cc3)c3ccc(F)cc3)[C@H](C)C2)c2nc(C#N)ccc2n(C)c1=O [Example 99, (R)-8-(4-(bis(4-fluorophenyl)methyl)-3-methylpiperazin-1-yl)-5,7-dimethyl-6-oxo-5,6-dihydro-1,5-naphthyridine-2-carbonitrile] | 1200 | 170 | 2800 |  |  |  | 
10 | 110000 | 10000 | C[C@@H]1CN(C(c2ccc(F)cc2)c2ccc(F)cc2)CCN1c1cc(=O)n(C)c2ccc(C#N)nc12 [Example 135, (R)-8-(4-(bis(4-fluorophenyl)methyl)-2-methylpiperazin-1-yl)-5-methyl-6-oxo-5,6-dihydro-1,5-naphthyridine-2-carbonitrile] | 3600 | 10000 | 61000 |  |  |  | 
11 | 200 | 3700 | C[C@@H]1CN(c2cc(=O)n(C)c3ccc(C#N)nc23)[C@@H](C)CN1C(c1ccc(F)cc1)c1ccccn1 (single isomer, unassigned) [Example 197] | 82 | 35 | 1100 |  |  |  | 
12 | 2800 | 960 | C[C@@H]1CN(c2c(C#N)c(=O)n(C)c3ccc(C#N)nc23)[C@@H](C)CN1C(c1ccc(F)cc1)c1ccc(F)cc1 [Example 159, 8-((2S,5R)-4-(bis(4-fluorophenyl)methyl)-2,5-dimethylpiperazin-1-yl)-5-methyl-6-oxo-5,6-dihydro-1,5-naphthyridine-2,7-dicarbonitrile] | 140 | 35 | 1000 |  |  |  | 
13 | 950 | 1400 | CC[C@@H]1CN(c2c(C#N)c(=O)n(C)c3ccc(C#N)nc23)CCN1C(c1ccc(F)cc1)c1ccc(F)cc1 [Example 173, (R)-8-(4-(bis(4-fluorophenyl)methyl)-3-ethylpiperazin-1-yl)-5-methyl-6-oxo-5,6-dihydro-1,5-naphthyridine-2,7-dicarbonitrile] | 45 | 25 | 990 |  |  |  | 
14 | 240000 | 1700 | COC(=O)C1CN(c2cc(=O)n(C)c3ccc(C#N)nc23)CCN1C(c1ccc(F)cc1)c1ccc(F)cc1 (stereo not drawn) [Example 27, Methyl 1-(bis(4-fluorophenyl)methyl)-4-(6-cyano-1-methyl-2-oxo-1,2-dihydro-1,5-naphthyridin-4-yl)piperazine-2-carboxylate] | 64 | 62 |  |  |  |  | 520
15 | 3400 | 130 | COc1cc(F)ccc1C(c1ccc(F)cc1)N1C[C@H](C)N(c2cc(=O)n(C)c3ccc(C#N)nc23)C[C@H]1C (single isomer, unassigned) [Example 108] |  |  |  | 130 | 33 | 440 | 
16 | 980 | 850 | C[C@@H]1CN(c2c(C#N)c(=O)n(C)c3ccc(C#N)nc23)CCN1C(c1ccc(F)cc1)c1ccc(F)cc1 [Example 32, (R)-8-(4-(bis(4-fluorophenyl)methyl)-3-methylpiperazin-1-yl)-5-methyl-6-oxo-5,6-dihydro-1,5-naphthyridine-2,7-dicarbonitrile] | 43 | 17 |  |  |  |  | 400
17 | 800 | 12000 | C[C@@H]1CN(c2c(Cl)c(=O)n(C)c3ccc(C#N)nc23)[C@@H](C)CN1C(c1ccc(F)cc1)c1ccc(F)cc1 [Example 18, 8-((2S,5R)-4-(bis(4-fluorophenyl)methyl)-2,5-dimethylpiperazin-1-yl)-7-chloro-5-methyl-6-oxo-5,6-dihydro-1,5-naphthyridine-2-carbonitrile] | 10000 | 250 | 20000 |  |  |  | 
18 | 1900 | 1400 | CC[C@@H]1CN(c2cc(=O)n(C)c3ccc(C#N)nc23)CCN1C(c1ccc(F)cc1)c1ccc(F)cc1 [Example 172, (R)-8-(4-(bis(4-fluorophenyl)methyl)-3-ethylpiperazin-1-yl)-5-methyl-6-oxo-5,6-dihydro-1,5-naphthyridine-2-carbonitrile] | 39 | 36 | 1300 |  |  |  | 
19 | 240000 | 240000 | CC(C)[C@@H]1CN(C(c2ccc(F)cc2)c2ccc(F)cc2)CCN1c1cc(=O)n(C)c2ccc(C#N)nc12 [Example 181, (R)-8-(4-(bis(4-fluorophenyl)methyl)-2-isopropylpiperazin-1-yl)-5-methyl-6-oxo-5,6-dihydro-1,5-naphthyridine-2-carbonitrile] | 10000 | 10000 | 20000 |  |  |  | 
20 | 2600 | 3300 | Cn1c(=O)cc(N2CCN(C(c3ccc(F)cc3)c3ccc(F)cc3)C(CO)C2)c2nc(C#N)ccc21 (single isomer, unassigned) [Example 2, 8-(4-(bis(4-fluorophenyl)methyl)-3-(hydroxymethyl)piperazin-1-yl)-5-methyl-6-oxo-5,6-dihydro-1,5-naphthyridine-2-carbonitrile] | 210 | 120 |  |  |  | 2700 | 
21 | 140000 | 240000 | CC(C)C(C)(O)C1CN(c2cc(=O)n(C)c3ccc(C#N)nc23)CCN1C(c1ccc(F)cc1)c1ccc(F)cc1 (single isomer, unassigned) [Example 88, 8-(4-(bis(4-fluorophenyl)methyl)-3-(2-hydroxy-3-methylbutan-2-yl)piperazin-1-yl)-5-methyl-6-oxo-5,6-dihydro-1,5-naphthyridine-2-carbonitrile] |  | 2000 | 10000 | 990 |  |  | 

Reference: patent US10669272B2, “Substituted naphthyridinone compounds useful as T cell activators” (BRISTOL-MYERS SQUIBB COMPANY, priority 2018, dated 2020)
